# From US9976141B2, “Compositions and methods for inhibiting gene expression of Hif2alpha” (Arrowhead Madison Inc., priority 2015, dated 2018)
# Strand notation (5' to 3'): a small letter for the sugar, then the base; units joined by * are phosphorothioate-linked, units joined directly phosphodiester-linked; [ ] holds rarer units or linkages, { } end groups; capitals alone tell only the bases. {Alk-SMPT-C6} = Alk-SMPT-C6 linker modification (publication code); [invdT] = inverted (3'-3') thymidine; d = 2'-deoxy (DNA); m = 2'-O-methyl; f = 2'-fluoro
# Test system: human (tumor) Hif2α (EPAS1) mRNA
# Test: Hif2α knockdown in orthotopic RCC tumor bearing mice, single injection of RNAi trigger-delivery polymer conjugate, RT-qPCR (Table 7)
# Format: in vivo
# Settings: single tail vein injection, relative to isotonic glucose
# Outline: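 A single intravenous dose of Hif2α RNAi trigger–delivery polymer conjugate, or isotonic glucose vehicle, was given to nude mice with subcapsular A498-SEAP renal tumours (about 5–6 weeks old). At the indicated time, tumour RNA was assayed by biplex TaqMan qPCR against CycA, and relative expression was calculated by ΔΔCT versus vehicle.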
# [1] = RNAi trigger 150 μg, polymer 100A 300 μg
# [2] = RNAi trigger 115 μg, polymer 100A 375 μg
substance,measurement,setting,value
"AD01410 (antisense TUUCAUGAAAUCGUUACGUCGGCUAU; sense UAUAUCGACGUAACGAUUUCAUGAAA; Hif2alpha RNAi agent antisense strand; modified_base 25 modified base = “2′-hydroxy corresponding nucleoside”; modified_base 2,4,6,8,10,12,14,16,18,20 /mod_base = “2′-deoxy-2′-fluoro corresponding nucleoside”; modified_base 3,5,7,11,13,15,17,19,21,22,23,24,26 /mod_base = “2′-O-methyl corresponding nucleoside”; modified_base 9 /mod_base = “2′-3′ seco corresponding nucleotide”; modified_base 2,24 /m; Hif2alpha RNAi agent sense strand; modified_base 2,4 modified base = “2′-hydroxy corresponding nucleoside”; modified_base 6,8,10,12,14,16,18,20,22,24,26 /mod_base = “2′-deoxy-2′-fluoro correspondi)",Relative Expression day 4 (Hif2α mRNA in kidney tumor),[1],0.41
"AD01411 (antisense TUUCAUGAAAUCGUUACGUCGGCUAU; sense UAUAUCGACGUAACGAUUUCAUGAAA; Hif2alpha RNAi agent antisense strand; modified_base 25 modified base = “2′-hydroxy corresponding nucleoside”; modified_base 2,4,6,8,10,12,14,16,18,20 /mod_base = “2′-deoxy-2′-fluoro corresponding nucleoside”; modified_base 3,5,7,11,13,15,17,19,21,22,23,24,26 /mod_base = “2′-O-methyl corresponding nucleoside”; modified_base 9 /mod_base = “2′-3′ seco corresponding nucleotide”; modified_base 2,24 /m; Hif2alpha RNAi agent sense strand; modified_base 2,4 modified base = “2′-hydroxy corresponding nucleoside”; modified_base 6,8,10,12,14,16,18,20,22,24,26 /mod_base = “2′-deoxy-2′-fluoro correspondi)",Relative Expression day 4 (Hif2α mRNA in kidney tumor),[1],0.36
"AD01424 (antisense TUUCAUGAAAUCGUUACGUCGGCUAU; sense UAUAUCGACGUAACGAUUUCAUGAAA; Hif2alpha RNAi agent antisense strand; modified_base 25 modified base = “2′-hydroxy corresponding nucleoside”; modified_base 2,4,6,8,10,12,14,16,18,20 /mod_base = “2′-deoxy-2′-fluoro corresponding nucleoside”; modified_base 3,5,7,11,13,15,17,19,21,22,23,24,26 /mod_base = “2′-O-methyl corresponding nucleoside”; modified_base 9 /mod_base = “2′-3′ seco corresponding nucleotide”; modified_base 2,3,23,; Hif2alpha RNAi agent sense strand; modified_base 2,4 modified base = “2′-hydroxy corresponding nucleoside”; modified_base 6,8,10,12,14,16,18,20,22,24 /mod_base = “2′-deoxy-2′-fluoro corresponding)",Relative Expression day 4 (Hif2α mRNA in kidney tumor),[1],0.54
"AD01476 (antisense dTfUmUfCmAfUmGfAmAfAmUfCmGfUmUfAmCfGmUdT*dT; sense ACGUAACGAUUUCAUGAAA; siRNA; sense: sugars from the 5' end fmfmfmfmfmfmfmfmfmf, [invdT] at 3' end, all phosphodiester, 5' {Alk-SMPT-C6}, methylation of C not given here; further chemistry not fully specified)",Relative Expression day 4 (Hif2α mRNA in kidney tumor),[2],0.32
"AD01522 (antisense TUUCAUGAAAUCGUUACGUTT; sense ACGUAACGAUUUCAUGAAAT; Hif2alpha RNAi agent antisense strand; modified_base 2,4,6,8,10,14,16,18 /mod_base = “2′-deoxy-2′-fluoro corresponding nucleoside”; modified_base 3,5,7,9,11,12,13,15,17,19 /mod_base = “2′-O-methyl corresponding nucleoside”; modified_base 21 /mod_base = “5′-phosphorothioate corresponding nucleotide”; Hif2alpha RNAi agent sense strand; modified_base 1,3,5,7,8,9,11,13,15,17,19 /mod_base = “2′-deoxy-2′-fluoro corresponding nucleoside”; modified_base 2,4,6,10,12,14,16,18 /mod_base = “2′-O-methyl corresponding nucleoside”; modified_base 20 /mod_base = “3′-3′-linked nucleotide”; modified_base 1 /mo)",Relative Expression day 4 (Hif2α mRNA in kidney tumor),[2],0.44
"AD01523 (antisense TUUCAUGAAAUCGUUACGUTT; sense ACGUAACGAUUUCAUGAAAT; Hif2alpha RNAi agent antisense strand; modified_base 2,4,6,8,10,13,14,16,18 /mod_base = “2′-deoxy-2′-fluoro corresponding nucleoside”; modified_base 3,5,7,9,11,12,15,17,19 /mod_base = “2′-O-methyl corresponding nucleoside”; modified_base 21 /mod_base = “5′-phosphorothioate corresponding nucleotide”; Hif2alpha RNAi agent sense strand; modified_base 1,3,5,8,9,11,13,15,17,19 /mod_base = “2′-deoxy-2′-fluoro corresponding nucleoside”; modified_base 2,4,6,7,10,12,14,16,18 /mod_base = “2′-O-methyl corresponding nucleoside”; modified_base 20 /mod_base = “3′-3′-linked nucleotide”; modified_base 1 /mo)",Relative Expression day 4 (Hif2α mRNA in kidney tumor),[2],0.49
"AD01524 (antisense TUUCAUGAAAUCGUUACGUTT; sense ACGUAACGAUUUCAUGAAAT; Hif2alpha RNAi agent antisense strand; modified_base 2,4,6,8,10,12,14,16,18 /mod_base = “2′-deoxy-2′-fluoro corresponding nucleoside”; modified_base 3,5,7,9,11,13,15,17,19 /mod_base = “2′-O-methyl corresponding nucleoside”; modified_base 2,3,21 /mod_base = “5′-phosphorothioate corresponding nucleotide”; Hif2alpha RNAi agent sense strand; modified_base 1,3,5,7,9,11,13,15,17,19 /mod_base = “2′-deoxy-2′-fluoro corresponding nucleoside”; modified_base 2,4,6,8,10,12,14,16,18 /mod_base = “2′-O-methyl corresponding nucleoside”; modified_base 20 /mod_base = “3′-3′-linked nucleotide”; modified_base 1)",Relative Expression day 4 (Hif2α mRNA in kidney tumor),[2],0.26
"AD01554 (antisense TUUCAUGAAAUCGUUACGUTT; sense ACGUAACGAUUUCAUGAAAT; Hif2alpha RNAi agent antisense strand; modified_base 2,4,6,8,10,13,14,16,18 /mod_base = “2′-deoxy-2′-fluoro corresponding nucleoside”; modified_base 3,5,7,9,11,12,15,17,19 /mod_base = “2′-O-methyl corresponding nucleoside”; modified_base 2,3,21 /mod_base = “5′-phosphorothioate corresponding nucleotide”; Hif2alpha RNAi agent sense strand; modified_base 1,3,5,8,9,11,13,15,17,19 /mod_base = “2′-deoxy-2′-fluoro corresponding nucleoside”; modified_base 2,4,6,7,10,12,14,16,18 /mod_base = “2′-O-methyl corresponding nucleoside”; modified_base 20 /mod_base = “3′-3′-linked nucleotide”; modified_base 1)",Relative Expression day 4 (Hif2α mRNA in kidney tumor),[2],0.29
"AD01555 (antisense TUUCAUGAAAUCGUUACGUTT; sense ACGUAACGAUUUCAUGAAAT; Hif2alpha RNAi agent antisense strand; modified_base 2,4,6,8,10,14,16,18 /mod_base = “2′-deoxy-2′-fluoro corresponding nucleoside”; modified_base 3,5,7,9,11,12,13,15,17,19 /mod_base = “2′-O-methyl corresponding nucleoside”; modified_base 2,3,21 /mod_base = “5′-phosphorothioate corresponding nucleotide”; Hif2alpha RNAi agent sense strand; modified_base 1,3,5,7,8,9,11,13,15,17,19 /mod_base = “2′-deoxy-2′-fluoro corresponding nucleoside”; modified_base 2,4,6,10,12,14,16,18 /mod_base = “2′-O-methyl corresponding nucleoside”; modified_base 20 /mod_base = “3′-3′-linked nucleotide”; modified_base 1)",Relative Expression day 4 (Hif2α mRNA in kidney tumor),[2],0.20
